For this assay, the target named is T1, h-NK1 receptors (Homo sapiens, UniProt P25103).
T1 construct: expressed in transfected cells; host or cells: CHO cells
Nature of the assay: ^125 I-BH-Substance P binding to h-NK1 receptors. Particulars: at the concentration of 0.1 μg/ml; CHO cell membranes expressing h-NK1 receptors; read-out: inhibition rate of ^125 I-BH-Substance P binding to h-NK1 receptors. As for the experimental part: ^125 I-BH-Substance P Binding to h-NK1 Receptors Test Method
^125 I-BH-Substance P Binding to h-NK1 Receptors
(a) Crude CHO cell membrane preparation
CHO cells permanently expressing h-NK1 receptors were harvested and homogenized with a Dounce homogenizer at 4° C. in a buffer (0.25M sucrose, 25 mM Tris-HCl pH 7.4, 10 mM MgCl2, 1 mM EDTA, 5 μg/ml p-APMSF). The homogenate was centrifuged (500×g, 10 minutes), and the pellet was resuspended in the same buffer, homogenized, and centrifuged. The two supernatants were combined and centrifuged (100,000×g, 1 hour). The crude cell membranes thus isolated were resuspended in buffer (25 mM Tris-HCl pH 7.4, 10 mM MgCl2, 1 mM EDTA, 5 μg/ml p-APMSF) and stored at -80° C. until use.
(b) ^125 I-BH-Substance P binding to preparation membrane Cell membranes (6 μg/ml) were incubated with ^125 I-BH-Substance P (0.1 nM) with or without test compounds in 0.25 ml of Medium 2(50 mM Tris-HCl pH 7.4, 5 mM MnCl2, 20 μg/ml chymostatin, 40 μg/ml bacitracin, 4 μg/ml leupeptin, 5 μg/ml p-APMSF, 200 μg/ml BSA) at 22° C. for 90 minutes. At the end of the incubation period, the content was quickly filtered over a Wahtman GF/C glass filter (pretreated with 0.1% polyethylene imine for 3 hours prior to use) under aspiration. Each of the filters was then washed four times with 5 ml of buffer (50 mM Tris-HCl pH 7.4, 5 mM MnCl2). The radioactivity was counted by using Auto Gamma counter (Packerd RIASTAR 5420A). All data presented are specific binding defined as that displaceable by 3 μM unlabeled Substance P.

As usually defined, the inhibition is the drop in the measured response relative to a control, in per cent.

T1 sequence (P25103 whole entry): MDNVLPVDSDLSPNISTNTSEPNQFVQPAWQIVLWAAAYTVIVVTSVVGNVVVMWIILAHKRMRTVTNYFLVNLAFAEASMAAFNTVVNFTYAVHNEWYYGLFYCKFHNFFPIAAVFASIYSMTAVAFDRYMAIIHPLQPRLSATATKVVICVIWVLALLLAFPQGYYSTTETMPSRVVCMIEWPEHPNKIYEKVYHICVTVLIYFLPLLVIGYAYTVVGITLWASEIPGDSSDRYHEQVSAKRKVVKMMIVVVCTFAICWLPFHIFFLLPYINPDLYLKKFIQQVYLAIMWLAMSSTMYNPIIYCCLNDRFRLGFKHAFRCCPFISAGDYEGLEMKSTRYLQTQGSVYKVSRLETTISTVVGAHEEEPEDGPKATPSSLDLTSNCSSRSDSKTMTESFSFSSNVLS

On to `CCCC(=O)Nc1nc(CN2CCN(C(=O)c3cc(C(F)(F)F)cc(C(F)(F)F)c3)[C@H](Cc3c[nH]c4ccccc34)C2)cs1` [Example 79-6], for which the inhibition at 0.1 µg/mL is greater than 90%.

For the origin of these results see patent US5883098A, “Piperazine derivatives” (Fujisawa Pharmaceutical Co., Ltd., priority 1993, dated 1999).
